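Following 48 hours of exposure in 96-well plates, responses at five concentrations were used to interpolate endpoints linearly. TGI denotes the concentration required for complete inhibition of growth.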

Some test systems named below: OVCAR-4 ovarian; SK-OV-3 ovarian; LOX IMVI melanoma; IGROV1 ovarian; SNB-78 CNS; OVCAR-3 ovarian; EKVX NSCLC; HOP-62 NSCLC; OVCAR-5 ovarian; DMS 114 small cell lung.
Common to all, as to test: NCI-60 cell line screen, 48 h

Consider `CC(=O)Nc1ccc(OCC(O)CO)cc1` (stereo unspecified), for which the TGI in the test with OVCAR-4 ovarian is more than 100 µM; with SK-OV-3 ovarian, more than 100 µM; in the test on LOX IMVI melanoma, 73.1 µM; in the test with IGROV1 ovarian, more than 100 µM; in the test with SNB-78 CNS it was more than 100 µM; in the test on OVCAR-3 ovarian, more than 100 µM. Moreover, the TGI with EKVX NSCLC, in the test on HOP-62 NSCLC and with OVCAR-5 ovarian was more than 100 µM each time.

As for `O=C(OCc1ccccc1)c1ccccc1-c1c2ccc(=O)cc-2oc2cc(OCc3ccccc3)ccc12`, the TGI with OVCAR-4 ovarian was more than 100 µM; in the test with LOX IMVI melanoma, 21.2 µM; with IGROV1 ovarian, 44.3 µM; with SNB-78 CNS, more than 100 µM; with OVCAR-3 ovarian, 59.1 µM; with EKVX NSCLC it was more than 100 µM. Besides, in the test on OVCAR-5 ovarian, the TGI is more than 100 µM.

In the case of `CCOC(=O)C1C(=O)c2cccc(OC)c2C2COC(=O)N12` (stereo unspecified), the TGI in the test with OVCAR-4 ovarian, in the test with SK-OV-3 ovarian, with LOX IMVI melanoma, in the test with IGROV1 ovarian, in the test with OVCAR-3 ovarian and in the test on EKVX NSCLC was more than 100 µM each time. The TGI with HOP-62 NSCLC, in the test with DMS 114 small cell lung and in the test on OVCAR-5 ovarian was more than 100 µM in each case.

Turning to `CC1CCC2[C@@H](C)COC3O[C@]4(C)CCC1C32OO4` (stereo partly specified), the TGI in the test with OVCAR-4 ovarian, in the test on SK-OV-3 ovarian, in the test with LOX IMVI melanoma, in the test with IGROV1 ovarian, in the test with SNB-78 CNS and with OVCAR-3 ovarian was more than 100 µM throughout. The TGI in the test on EKVX NSCLC, in the test on HOP-62 NSCLC, in the test on DMS 114 small cell lung and in the test with OVCAR-5 ovarian was more than 100 µM in each case.

In the case of `CCc1cccc(CC)c1NC(=O)C1=CNC(C)=C(C(=O)Nc2c(CC)cccc2CC)C1c1ccc(O)c(OC)c1` (stereo unspecified), the TGI in the test with OVCAR-4 ovarian was 91.4 µM; in the test on SK-OV-3 ovarian it was more than 100 µM; in the test with LOX IMVI melanoma it was more than 100 µM; in the test with IGROV1 ovarian it was more than 100 µM; in the test on SNB-78 CNS, more than 100 µM; in the test with OVCAR-3 ovarian, 53.9 µM. The TGI with EKVX NSCLC was more than 100 µM; in the test on HOP-62 NSCLC it was 86.8 µM; in the test on DMS 114 small cell lung it was more than 100 µM; in the test with OVCAR-5 ovarian it was more than 100 µM.

For the molecule `CCN(CC)c1ccc(N=C2C=CC(=C(C#N)C#N)c3ccccc32)c(C)c1`, the TGI in the test on OVCAR-4 ovarian is 5.63 µM; with SK-OV-3 ovarian, 24 µM; in the test on LOX IMVI melanoma it was 4.75 µM; with IGROV1 ovarian it was 8.86 µM; in the test with SNB-78 CNS, 6.42 µM; with OVCAR-3 ovarian, 3.82 µM. Also, the TGI in the test with EKVX NSCLC is 18.4 µM; in the test on HOP-62 NSCLC it was 6.25 µM.

Regarding `CN/N=C(/CC(=O)c1sc(NNC(C)=O)nc1C)C(=O)Nc1ccc(OC)cc1OC`, the TGI with OVCAR-4 ovarian, in the test on LOX IMVI melanoma, in the test with IGROV1 ovarian, in the test with SNB-78 CNS, in the test with OVCAR-3 ovarian and in the test on EKVX NSCLC was more than 100 µM throughout. Further, the TGI in the test on HOP-62 NSCLC, with DMS 114 small cell lung and in the test on OVCAR-5 ovarian was more than 100 µM in each case.

As to `N#CC12CC3(CCC1CCC1(C2)OCCO1)OCCO3` (stereo unspecified), the TGI in the test on OVCAR-4 ovarian, with SK-OV-3 ovarian, in the test with LOX IMVI melanoma, with IGROV1 ovarian, in the test with SNB-78 CNS and in the test with OVCAR-3 ovarian was more than 100 µM throughout. Moreover, the TGI with EKVX NSCLC, in the test with HOP-62 NSCLC, in the test with DMS 114 small cell lung and in the test with OVCAR-5 ovarian was more than 100 µM throughout.

`Nc1ncnc2c1ncn2COC/C=C/I`: the TGI in the test on OVCAR-4 ovarian, with SK-OV-3 ovarian, in the test on LOX IMVI melanoma, with IGROV1 ovarian, in the test with SNB-78 CNS and in the test on OVCAR-3 ovarian was more than 100 µM each time. Also, the TGI with EKVX NSCLC, with HOP-62 NSCLC, in the test on DMS 114 small cell lung and in the test on OVCAR-5 ovarian was more than 100 µM each time.

`CCCCCC/C(CC(=O)CCC(=O)NCCc1ccccc1)=N\NC(=O)c1ccc2ccccc2c1O`: the TGI with OVCAR-4 ovarian is more than 100 µM; with LOX IMVI melanoma, 48.5 µM; with IGROV1 ovarian, more than 100 µM; in the test on SNB-78 CNS, more than 100 µM; in the test on OVCAR-3 ovarian, more than 100 µM; with EKVX NSCLC, more than 100 µM. Further, the TGI with HOP-62 NSCLC is more than 100 µM; in the test with OVCAR-5 ovarian, 54.2 µM.

With `ClCCCN1CCCCC1CCl` (stereo unspecified), the TGI with OVCAR-4 ovarian, in the test with SK-OV-3 ovarian, with LOX IMVI melanoma, with IGROV1 ovarian, in the test with OVCAR-3 ovarian and in the test with HOP-62 NSCLC was more than 100 µM each time. Besides, the TGI in the test on DMS 114 small cell lung and in the test with OVCAR-5 ovarian was more than 100 µM each time.

As for `O=C1OC(=O)C2C1C1C(c3ccccc3)=C(c3ccccc3)C2(O)C2C(=O)OC(=O)C12` (stereo unspecified), the TGI in the test on OVCAR-4 ovarian, in the test with SK-OV-3 ovarian, in the test on IGROV1 ovarian, in the test with SNB-78 CNS, in the test with OVCAR-3 ovarian and with EKVX NSCLC was more than 100 µM each time. Also, the TGI in the test on HOP-62 NSCLC, in the test with DMS 114 small cell lung and with OVCAR-5 ovarian was more than 100 µM each time.

Turning to `COc1c(OC2OC(CO)C(O)C(O)C2O)cc2c(c1OC)-c1ccc(OC)c(=O)cc1[C@@H](NC(C)=O)CC2` (stereo partly specified), the TGI with OVCAR-4 ovarian was more than 100 µM; with SK-OV-3 ovarian, more than 100 µM; in the test with LOX IMVI melanoma, more than 100 µM; in the test on IGROV1 ovarian, more than 100 µM; with SNB-78 CNS, more than 100 µM; with OVCAR-3 ovarian it was more than 96.6 µM. The TGI in the test with EKVX NSCLC was more than 100 µM; in the test with HOP-62 NSCLC it was more than 100 µM; in the test on DMS 114 small cell lung, more than 97 µM; in the test on OVCAR-5 ovarian, more than 100 µM.

Take `C#Cc1ccccc1N1C(=O)C=CC1=O`: the TGI in the test with OVCAR-4 ovarian, in the test on SK-OV-3 ovarian, in the test on IGROV1 ovarian, in the test on SNB-78 CNS, with OVCAR-3 ovarian and in the test on EKVX NSCLC was more than 100 µM in each case. Also, the TGI with HOP-62 NSCLC, in the test with DMS 114 small cell lung and in the test with OVCAR-5 ovarian was more than 100 µM throughout.

For the molecule `CCOc1cc[n+](C(=C=[N-])C#N)cc1`, the TGI in the test with OVCAR-4 ovarian, in the test with SK-OV-3 ovarian, in the test with LOX IMVI melanoma, with IGROV1 ovarian, in the test on SNB-78 CNS and in the test on OVCAR-3 ovarian was more than 100 µM in each case. In addition, the TGI in the test on EKVX NSCLC, in the test with HOP-62 NSCLC, with DMS 114 small cell lung and with OVCAR-5 ovarian was more than 100 µM in each case.

The values above are taken from PubChem BioAssay (NCI).
